The results in this text go back to PubChem BioAssay AID1845203 (Molecular Pharmacology Branch, DTP, NCI, 2023).

The structures appear in SMILES notation. Several values for one entry are separate records, joined by “and”; a condition that tells them apart may be missing. Identical values can stand only once. Bounds are passed on as bounds.

For orientation: viability, T/C means the ratio of treated to control. In general, IC50 refers to the concentration that inhibits the measured activity by half.

The subject of the test is G-401 tumor spheroids, viability % test/control. The test is described as follows: Anticancer human tumor G-401 cell line growth inhibition.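 On all read-outs here: spheroids exposed to compound for 7 days.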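 On viability, T/C: 100% = DMSO vehicle-treated spheroids.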 As to conditions: spheroids with HUVEC and MSC; for viability, T/C: stronger effect = lower value. An excerpt: Multicellular complex tumor spheroid response to DNA repair inhibitors in combination with DNA-damaging drugs
This study explores the anticancer activities of DNA-damaging drugs and inhibitors of DNA damage repair, both as single agents and in combinations. Complex tumor spheroids comprised of malignant cells, endothelial cells and mesenchymal stem cells served as an in vitro model for human solid tumors. This model system incorporates physiologically relevant features and patient-derived or established malignant cell lines with clinically relevant genetic alterations from many tumor types. Twenty-six patient-derived or established malignant cell lines were evaluated representing sarcoma, melanoma, small cell lung cancer (SCLC), non-small cell lung cancer (NSCLC), as well as bladder, ovarian and pancreatic cancers. The concentration ranges selected for each drug and investigational agent were based upon clinically achievable concentrations if the clinical Cmax of the agent was known.
Compounds. The drugs and compounds olaparib (NSC753686), talazoparib (NSC767125), berzosertib (NSC777718), elimusertib (NSC800525), nedisertib (NSC802822), VX-984 (NSC792969), AZD-1390 (NSC803789), temozolomide (NSC362856), topotecan (NSC609699), trabectedin (NSC813783), staurosporine (NSC755774), and gemcitabine (NSC613327) were obtained from the National Cancer Institute (NCI) Developmental Therapeutics Program Chemical Repository. The FDA-approved anticancer drug set is available from the Developmental Therapeutics Program at https://dtp.cancer.gov/organization/dscb/obtaining/available_plates.htm. […] The stock solutions were prepared in dimethyl sulfoxide (DMSO, Sigma-Aldrich, St. Louis, MO, cat. D2650) at 400-fold the tested concentration and stored at -70 degrees C. Prior to their use, the stock solutions were diluted in fresh medium and the final DMSO concentration in the assay was 0.25% (v/v). All drugs and investigational agents were tested over a range starting from a high concentration at or near the clinical Cmax and decreasing in half-log increments. If the clinical Cmax for an agent had not been determined, the highest concentration tested was 10 microM.
Cell Lines. The patient-derived cancer cell (PDC) lines: 156681-154-R-J1-PDC, 283228-195-R-J1-PDC, 287954-098-R-J1-PDC, 292921-168-R-J2-PDC, 349418-098-R-PDC, 425362-245-T-J1-PDC, 556581-035-R-J1-PDC, and BL0293-F563-PDC were received from the NCI Patient-Derived Models Repository (PDMR, https://pdmr.cancer.gov). The established cell lines HS-SY-2 (RRID:CVCL_8719), MPNST, and SYO-1 (RRID:CVCL_7146) were obtained from the Sloan Kettering Institute. The alveolar soft parts sarcoma cell line ASPS-1 (RRID:CVCL_S738) was established at the NCI and grown from internal seed stocks. The following established cell lines were purchased from the American Type Culture Collection (ATCC, Manassas, VA): G-401 (ATCC, cat. CRL-1441, RRID:CVCL_0270), SW982 (ATCC, cat. HTB-93, RRID:CVCL_1734), VA-ES-BJ (ATCC, cat. CRL-2138, RRID:CVCL_1785), NCI-H719 (ATCC, cat. CRL-5837, RRID:CVCL_1582), NCI-H196 (ATCC, cat. CRL-5823, RRID:CVCL_1509), NCI-H841 (ATCC, cat. CRL-5845, RRID:CVCL_1595), NCI-H1618 (ATCC, cat. CRL-5879, RRID:CVCL_1480), NCI-H1876 (ATCC, cat. CRL-5902, RRID:CVCL_1503), DMS 114 (ATCC, cat. CRL-2066; RRID:CVCL_1174), NCI-H211 (ATCC, cat. CRL-5824; RRID:CVCL_1529), and SW 1271 (ATCC, cat. CRL-2177, RRID:CVCL_1716). The small cell lung cancer cell line COR-L88 was purchased from Sigma-Aldrich (cat. 92031917-1VL, RRID:CVCL_1141). The non-small cell lung cancer cell lines NCI-H226 (RRID:CVCL_1544) and NCI-H322M (RRID:CVCL_1557) were established at the NCI and grown from internal seed stocks. Pooled donor human umbilical vein endothelial cells (HUVEC, Lonza, cat. CC-2519) and human mesenchymal stem cells (hMSC, Lonza, cat. PT-2501) were purchased from Lonza (Walkersville, MD).
Cell Culture. All cells were maintained in an incubator at 37 degrees C and 5% CO2 with 95% humidity. […]

Where [1] appears, read: compound alone, run of 12/02/2019.
Setting [2] is: compound alone, run of 12/12/2019.

Regarding `CC(C)n1c(=O)n(C)c2cnc3cc(F)c(-c4ccc(OCCCN5CCCCC5)nc4)cc3c21`, the viability, T/C reads like this: (compound 0.0316 µM) 87.5% and 105% and 107%; (compound 0.1 µM) 92.2% and 105% and 104%; (compound 0.316 µM) 47.9% and 100% and 108%; (compound 1 µM) 90.7% and 101% and 103%; (compound 3.16 µM) 95.9% and 98.2% and 101%; (compound 10 µM) 67.4% (2×) and 86.7%. In addition, the IC50 (curve of compound) was greater than 10 µM.

On to `CC1COCCN1c1cc(-c2ccnn2C)c2ccnc(-c3ccn[nH]3)c2n1` (stereo not drawn), for which the viability, T/C (compound 0.0316 µM) was 67% and 79% and 90.9%; the viability, T/C (compound 0.1 µM) was 34.7% and 42.4% and 56%; the viability, T/C (compound 0.316 µM) was 19.1% and 24.4% and 31.2%; the viability, T/C (compound 1 µM) is 13.1% and 17.3% and 18.1%; the viability, T/C (compound 3.16 µM) is 16.2% and 18.7% and 19.8%; the viability, T/C (compound 10 µM) was 18.1% and 20.2% and 22.3%. Where the note is “curve of compound”, the IC50 is 0.058 µM and 0.079 µM and 0.132 µM.

`CC[C@@]1(O)C(=O)OCc2c1cc1n(c2=O)Cc2cc3c(CN(C)C)c(O)ccc3nc2-1`: the viability, T/C (compound 0.003 µM) was 78.6% [middle of 10 runs]; the viability, T/C (compound 0.00949 µM) was 48.8% [middle of 10 runs]; the viability, T/C (compound 0.03 µM) is 16% [middle of 10 runs]; the viability, T/C (compound 0.0949 µM) is 7.7% [middle of 10 runs]; the viability, T/C (compound 0.3 µM) is 5.06% [middle of 10 runs]. The IC50 was 8.64 nM [middle of 5 runs] under setting [1] and 9.18 nM [middle of 5 runs] under setting [2].

Consider `CNCc1ccc(-c2cc(-c3nc(-c4ccc(S(=O)(=O)C(C)C)cc4)cnc3N)on2)cc1`, for which the viability, T/C by setting is: (compound 0.00949 µM) 97.3% and 93.8% and 100%; (compound 0.03 µM) 102% and 98.4% and 99.4%; (compound 0.0949 µM) 103% and 105% and 101%; (compound 0.3 µM) 96.6% and 96% and 97.9%; (compound 0.949 µM) 71.3% and 64% and 69.4%; (compound 3 µM) 41.7% and 38.1% and 39.8%. In addition, the half-inhibitory concentration (IC50) (curve of compound) was 2.17 µM and 1.77 µM and 2.02 µM.

For the compound `COc1cc(C)[nH]c(=O)c1CN1CCc2c(Cl)cc(C(OC)C3COC3)c(Cl)c2C1=O` (stereo not drawn), the viability, T/C by setting is: (compound 0.0316 µM) 76.2% and 80.4% and 95.5%; (compound 0.1 µM) 52.4% and 56.5% and 66.3%; (compound 0.316 µM) 35.7% and 33.3% and 42.5%; (compound 1 µM) 30.3% and 28.9% and 35.6%; (compound 3.16 µM) 28% and 18.8% and 33.9%; (compound 10 µM) 26.9% and 19% and 31.9%. For the same compound, under “curve of compound”, the IC50 is 0.118 µM and 0.138 µM and 0.223 µM.

Regarding `COc1cc2c(cc1O)CCNC21CSC2c3c(OC(C)=O)c(C)c4c(c3C(COC1=O)N1C(O)C3Cc5cc(C)c(OC)c(O)c5C(C21)N3C)OCO4` (stereo not drawn), the viability, T/C runs as follows: (compound 30 pM) 99.4% [middle of 10 runs]; (compound 0.0003 µM) 38.9% [middle of 10 runs]; (compound 0.000949 µM) 7.91% [middle of 10 runs]; (compound 0.003 µM) 0.12% [middle of 5 runs]. Moreover, the half-maximal inhibitory concentration (IC50) under setting [2] was 0.233 nM [middle of 10 runs].

Regarding `COc1ccc([C@@H](O)c2cc(-c3ncnc4cc(N5CCOCC5)ccc34)c(F)cc2Cl)nn1`, the viability, T/C (compound 0.0316 µM) was 101% and 107% and 106%; the viability, T/C (compound 0.1 µM) was 91.2% and 94.8% and 97.8%; the viability, T/C (compound 0.316 µM) is 82.3% and 92.2% and 94.8%; the viability, T/C (compound 1 µM) was 50.2% and 63.6% and 69.6%; the viability, T/C (compound 3.16 µM) is 22.2% and 24% and 31%; the viability, T/C (compound 10 µM) is 11% and 10.1% and 15.4%. Further, the half-maximal inhibitory concentration (IC50) (curve of compound) is 1.02 µM and 1.48 µM and 1.8 µM.

Consider `Cc1cc(C)c(CNC(=O)c2cc(-c3ccc(CN4CCOCC4)cc3)cc3c2cnn3C2CCCC2)c(=O)[nH]1`, for which the viability, T/C is, setting by setting: (compound 0.0316 µM) 106% and 105% and 95.6%; (compound 0.1 µM) 111% and 102% and 98.5%; (compound 0.316 µM) 108% and 107% and 106%; (compound 1 µM) 113% and 97.5% and 91.4%; (compound 3.16 µM) 98.1% and 91.5% and 77.8%; (compound 10 µM) 44.2% and 44.8% and 57.8%. For the setting “curve of compound”, the 50% inhibitory concentration (IC50) was 8.84 µM and 8.81 µM and > 10 µM.

`Cc1sc2c(c1C)C(c1ccc(Cl)cc1)=NC(CC(=O)Nc1ccc(O)cc1)c1nnc(C)n1-2` (stereo not drawn): the viability, T/C runs as follows: (compound 0.00949 µM) 93.3% and 106% and 91.1%; (compound 0.03 µM) 86.6% and 75.1% and 80.9%; (compound 0.0949 µM) 65.4% and 56.4% and 67.6%; (compound 0.3 µM) 34.7% and 35.5% and 37.8%; (compound 0.949 µM) 20.1% and 20% and 21.8%; (compound 3 µM) 10% and 11.8% and 7.68%. Moreover, under “curve of compound”, the IC50 is 0.173 µM and 0.122 µM and 0.192 µM.

In the case of `Cn1ncnc1[C@H]1c2n[nH]c(=O)c3cc(F)cc(c23)N[C@@H]1c1ccc(F)cc1`, the viability, T/C reads like this: (compound 0.00949 µM) 70.3% and 90% and 80.4%; (compound 0.03 µM) 54.4% and 75.6% and 67%; (compound 0.0949 µM) 43.7% and 56% and 56.1%; (compound 0.3 µM) 28.6% and 38.6% and 34.7%; (compound 0.949 µM) 17.3% and 23.2% and 21.1%; (compound 3 µM) 12.2% and 14.5% and 11.7%. Moreover, the IC50 (curve of compound) was 0.049 µM and 0.143 µM and 0.12 µM.

As for `Cn1nnc2c(C(N)=O)ncn2c1=O`, the viability, T/C is, setting by setting: (compound 1 µM) 102% [middle of 10 runs]; (compound 3.16 µM) 102% [middle of 10 runs]; (compound 10 µM) 103% [middle of 10 runs]; (compound 31.6 µM) 96.8% [middle of 10 runs]; (compound 100 µM) 94.8% [middle of 9 runs]. Under setting [1], the IC50 was greater than 100 µM.

On to `O=C(c1cc(Cc2n[nH]c(=O)c3ccccc23)ccc1F)N1CCN(C(=O)C2CC2)CC1`, for which the viability, T/C reads like this: (compound 0.0949 µM) 98.3% and 98.6% and 96.5%; (compound 0.3 µM) 97.5% and 84.9% and 91.2%; (compound 0.949 µM) 96.1% and 86.9% and 105%; (compound 3 µM) 83.7% and 82.5% and 87%; (compound 9.49 µM) 54.9% and 49.4% and 58.5%; (compound 30 µM) 40.1% and 28.5% and 34.9%. In addition, where the note is “curve of compound”, the half-maximal inhibitory concentration (IC50) was 13.9 µM and 9.39 µM and 14.2 µM.

Turning to `[2H]c1nc(C)nc([2H])c1-c1cc(NC[C@@H](C)c2cccc3c(C(=O)NC)ccnc23)ncn1`, the viability, T/C is 104% and 105% and 96.6% (compound 0.0316 µM); 108% and 98.9% and 97.7% (compound 0.1 µM); 103% and 105% and 98.1% (compound 0.316 µM); 102% and 98.9% and 98.6% (compound 1 µM); 105% and 103% and 98.3% (compound 3.16 µM); 104% and 103% and 98% (compound 10 µM). For the same compound, the IC50 (curve of compound) was greater than 10 µM.
